Assays:
Type in all cases: physicochemical
[1] = Magnetic susceptibility by the Evans method (1H NMR shift of residual CDCl3 proton); conditions: solution in CDCl3; for χmass: mass susceptibility; for χmol: molar susceptibility, χmol = MW*χmass
Description: For the prepared molecules of structure (I) in table 2 below, the paramagnetic properties have been evaluated by the Evans method [D.F. Evans, J. Chem. Soc. 2003 (1959)]. This is based on nuclear magnetic measurements (NMR), and relies on the fact that the chemical shift (position) of the ^1H NMR signals of a molecule depend on the bulk susceptibility of the medium. In particular, the resonance line of the residual proton of CDCl3 (i.e. the NMR solvent) was used as a reference, by comparing its chemical shift for the pure CDCl3 and for a solution containing the molecules of structure (I).
As expected the mass susceptibility of the different complexes (molecules of structure (I)) vary depending on mass ratio between the paramagnetic ion (e.g. Ho^3+) and the organic DTPA-ligand (thus, it is smaller for the bigger ligands). […] Magnetism and magnetic materials. Cambridge University Press, 2010]

[2] = Verdet coefficient measurement (magneto-optic, Faraday effect); conditions: 1 M aqueous solution (control)
Protocol: The composition is prepared according to example 5.1 but using isofol 12 to obtain a weight fraction of 23 % w/w of isofol 12, where Tb^3+ is used as the paramagnetic ion in structure (I). The Verdet coefficient was determined to be 17.1 rad T^-1 m^-1 at 410 nm wavelength, and 8.0 rad T^-1 m^-1 at 600 nm. As a control a 1 M TbCl3 aqueous solution was measured using the same method resulting in a Verdet coefficient of 14.1 rad T^-1 m^-1 at 410 nm wavelength, and 4.9 rad T^-1 m^-1 at 600 nm in agreement with literature.

[3] = Preparation of paramagnetic oil with paraffin (mineral) oil; conditions: typically 10-30 wt%, as co-component
Protocol: The complex 3 (molecules of structure (I)) is dissolved in the minimum amount of dichloromethane, so to have a homogeneous solution, after that a fatty alcohol (e.g. isofol® 12) is added (typically 10-40 wt%), and the resultant mixture rotary evaporated under high vacuum to completely eliminate the volatile dichloromethane, resulting in the target homogeneous transparent paramagnetic oil.
The composition is prepared according to example 5.1 but using paraffin (mineral) oil (typically 10-30 wt%) as co-component instead of the fatty alcohol.
This method is particularly suitable when using complexes with long chains (preferably more than 8 carbon atoms).

| Compound | χmass [1] | χmol [1] [cm^3 mol^-1] | Verdet coefficient ([2]; 410 nm wavelength) [rad T^-1 m^-1] | Verdet coefficient ([2]; 600 nm) [rad T^-1 m^-1] | appearance of composition with mineral oil [3] |
| --- | --- | --- | --- | --- | --- |
| CC(=O)[O-].CC(=O)[O-].CC(=O)[O-].O.[Ho+3] [Ho(AcO)3 *nH2O, reference compound] | 11.0 (cm^3 g^-1) /10-5 | 0.037 | – | – | – |
| [Cl][Tb]([Cl])[Cl] [TbCl3] | – | – | 14.1 | 4.9 | – |
| Ho-DTPA-(1-octadecanol)2 | – | – | – | – | homogeneous transparent fluid reacting to magnetic fields |
| Ho-DTPA-(2-butyl-1-octanol)2 | 4.98 (cm^3 g^-1) /10-5 | 0.0350 | – | – | – |
| Ho-DTPA-(2-octyl-1-dodecanol)2 | 3.72 (cm^3 g^-1) /10-5 | 0.0415 | – | – | – |
| Ho-DTPA-(3,7-dimethy-1-octanol)2 | 5.05 (cm^3 g^-1) /10-5 | 0.0422 | – | – | – |
| Ho-DTPA-(hexanol)2 | 6.04 (cm^3 g^-1) /10-5 | 0.0437 | – | – | – |
